These results are taken from PMC5947510 (2015).

SMILES strings stand for the structures.

In the assay the test system is pre-miR-27a (RNA, miRNA) GGGCUGAGGAGCAGGGCUUAGCUGCUUGUGAGCAGGGUCCACACCAAGUCGUGUUCACAGUGGCUAAGUUCCGCCCCCCAG
The assay is described as follows: fluorescence titration (bisbenzimidazole emission). The conditions noted are these: 10 mM NaCl, 1 mM MgCl2; 10 mM sodium cacodylate, pH 7.5, 25 °C; compound 500 nM.
Molecule `CN1CCN(c2ccc3nc(-c4ccc5nc(-c6ccc(O)cc6)[nH]c5c4)[nH]c3c2)CC1` showed a Ka of 3.4e+06 M⁻¹. Take `CN1CCN(c2ccc3nc(-c4ccc5nc(-c6ccc(OCCCCCCCCCCOCc7cn(C[C@H]8O[C@@H](O[C@@H]9[C@@H](O)[C@H](N)C[C@H](N)[C@H]9O[C@H]9O[C@H](CN)[C@@H](O)[C@H](O)[C@H]9N)[C@H](O)[C@@H]8O[C@H]8O[C@@H](CN)[C@@H](O)[C@H](O)[C@H]8N)nn7)cc6)[nH]c5c4)[nH]c3c2)CC1`: the Ka came to 1.2e+07 M⁻¹. As to `CN1CCN(c2ccc3nc(-c4ccc5nc(-c6ccc(OCCCCCCCCCc7cn(C[C@H]8O[C@@H](O[C@@H]9[C@@H](O)[C@H](N)C[C@H](N)[C@H]9O[C@H]9O[C@H](CN)[C@@H](O)[C@H](O)[C@H]9N)[C@H](O)[C@@H]8O[C@H]8O[C@@H](CN)[C@@H](O)[C@H](O)[C@H]8N)nn7)cc6)[nH]c5c4)[nH]c3c2)CC1`, the Ka was 3.2e+08 M⁻¹. Molecule `CN1CCN(c2ccc3nc(-c4ccc5nc(-c6ccc(OCCCCCCCCOCc7cn(C[C@H]8O[C@@H](O[C@@H]9[C@@H](O)[C@H](N)C[C@H](N)[C@H]9O[C@H]9O[C@H](CN)[C@@H](O)[C@H](O)[C@H]9N)[C@H](O)[C@@H]8O[C@H]8O[C@@H](CN)[C@@H](O)[C@H](O)[C@H]8N)nn7)cc6)[nH]c5c4)[nH]c3c2)CC1` returned a Ka of 2.5e+07 M⁻¹. Take `CN1CCN(c2ccc3nc(-c4ccc5nc(-c6ccc(OCCCCCCOCc7cn(C[C@H]8O[C@@H](O[C@@H]9[C@@H](O)[C@H](N)C[C@H](N)[C@H]9O[C@H]9O[C@H](CN)[C@@H](O)[C@H](O)[C@H]9N)[C@H](O)[C@@H]8O[C@H]8O[C@@H](CN)[C@@H](O)[C@H](O)[C@H]8N)nn7)cc6)[nH]c5c4)[nH]c3c2)CC1`: the Ka was 1.2e+08 M⁻¹. Regarding `CN1CCN(c2ccc3nc(-c4ccc5nc(-c6ccc(OCCCCOCc7cn(C[C@H]8O[C@@H](O[C@@H]9[C@@H](O)[C@H](N)C[C@H](N)[C@H]9O[C@H]9O[C@H](CN)[C@@H](O)[C@H](O)[C@H]9N)[C@H](O)[C@@H]8O[C@H]8O[C@@H](CN)[C@@H](O)[C@H](O)[C@H]8N)nn7)cc6)[nH]c5c4)[nH]c3c2)CC1`, the Ka worked out at 7.4e+08 M⁻¹.
